Data published in patent US20150111833A1, “Method Of Treating An Ocular Disease And Compositions Effective For Treating An Ocular Disease” (Howard University, priority 2012, published 2015).

Tested on: endophthalmitis
Test: Combination therapy treatment of severe endophthalmitis in a human subject (case report)
Assay type: in vivo
Conditions: initial regimen without cyclosporin A: intravitreal Vancomycin and Ceftazidime, then Ceftazidime, Vancomycin and Prednisolone eye drops every two hours; over the next two days
Description: A uniocular subject was diagnosed with severe endophthalmitis in their only functioning eye. […] The subject was treated with an aggressive treatment regimen of antibiotics (Intra Vitreal injection of Vancomycin and Ceftazidime) followed by Ceftazidime eye drops. Vancomycin eye drops and steroid Prednisolone eye drops every two hours.
Cyclosporin A (sold as […]® from Allergan, Inc.) was added to the treatment regimen and was administered prior to administering the antibiotic and steroid eye drops.
The Ceftriaxone was added to the regimen to increase the aggressiveness of the therapy with the goal of preventing or eliminating any traces of infection in the retina, which can result in irreversible blindness.

Row | Compound | improvement of the subject
1 | CC(C)(O/N=C(\C(=O)N[C@@H]1C(=O)N2C(C(=O)[O-])=C(C[n+]3ccccc3)CS[C@H]12)c1csc(N)n1)C(=O)O [Ceftazidime] | no improvement
2 | C[C@]12C=CC(=O)C=C1CC[C@@H]1[C@@H]2[C@@H](O)C[C@@]2(C)[C@H]1CC[C@]2(O)C(=O)CO [Prednisolone] | no improvement
3 | CN[C@H](CC(C)C)C(=O)N[C@H]1C(=O)N[C@@H](CC(N)=O)C(=O)N[C@H]2C(=O)N[C@H]3C(=O)N[C@H](C(=O)N[C@H](C(=O)O)c4cc(O)cc(O)c4-c4cc3ccc4O)[C@H](O)c3ccc(c(Cl)c3)Oc3cc2cc(c3O[C@@H]2O[C@H](CO)[C@@H](O)[C@H](O)[C@H]2O[C@H]2C[C@](C)(N)[C@H](O)[C@H](C)O2)Oc2ccc(cc2Cl)[C@H]1O [Vancomycin] | no improvement
